Numbered stars: 1 amine (or outer) side, 2 acyl side, 3 side chain; on linkers, the order of the positions; unused ones are H or OH. Bridge positions count the residues as written; N and C are the ends. Square brackets hold non-standard residues; d marks the D form. Peptide text beside a SMILES is read from it. * marks the point of attachment. Trp(βS-Me,7-OMe) = COc1cccc2c([C@H](C)[C@H](N)C(=O)O)c[nH]c12; X51 = CCC[C@@H](c1c[nH]c2ccccc12)[C@H](N[*:1])C(=O)[*:2]; Phe(4-SO2NH2) = N[C@@H](Cc1ccc(S(N)(=O)=O)cc1)C(=O)O; Phe(2-F,4-COOH) = N[C@@H](Cc1ccc(C(=O)O)cc1F)C(=O)O; Trp(7-CN) = N#Cc1cccc2c(C[C@H](N)C(=O)O)c[nH]c12; Trp(7-Cl) = N[C@@H](Cc1c[nH]c2c(Cl)cccc12)C(=O)O; Phe(3-CONH2) = NC(=O)c1cccc(C[C@H](N)C(=O)O)c1; Phe(4-CONH2) = NC(=O)c1ccc(C[C@H](N)C(=O)O)cc1; Phe(4-COOH) = N[C@@H](Cc1ccc(C(=O)O)cc1)C(=O)O; Trp(7-aza) = N[C@@H](Cc1c[nH]c2ncccc12)C(=O)O; Asn(3S-OH) = NC(=O)[C@@H](O)[C@H](N)C(=O)O; X47 = NC[C@H]1C[C@H](C(=O)[*:2])N([*:1])C1; X63 = O=C([C@@H]1CC[C@H](O)CN1[*:1])[*:2]; Pip(5R-OH) = O=C(O)[C@@H]1CC[C@@H](O)CN1; αMeW = C[C@](N)(Cc1c[nH]c2ccccc12)C(=O)O; X1 = O=C([C@@H]1CC[C@H](N[*:1])C1)[*:2]; AEF = NCCOc1ccc(C[C@H](N)C(=O)O)cc1; Pip(4-aza) = O=C(O)[C@@H]1CNCCN1; 4Pal = N[C@@H](Cc1ccncc1)C(=O)O; NMeE = CN[C@@H](CCC(=O)O)C(=O)O; dHyp = O=C(O)[C@H]1C[C@H](O)CN1; X33 = N#CCCN(CC(=O)[*:2])[*:1]; Pip = O=C(O)[C@@H]1CCCCN1; αMeS = C[C@](N)(CO)C(=O)O; Carboxymethyl = O=C(O)C*; Nle = CCCC[C@H](N)C(=O)O; Dab = NCC[C@H](N)C(=O)O; Sar = CNCC(=O)O
Assays:
[1] = target: T1, human soluble TNFR1 (sTNFR1) (Homo sapiens, UniProt P19438); experiment: Human sTNFR1-peptide displacement assay (LanthaScreen Eu TR-FRET binding assay)
T1 construct: made in house; host or cells: Sf21 (baculovirus)
T1 sequence (P19438 with tags, fused parts or gaps): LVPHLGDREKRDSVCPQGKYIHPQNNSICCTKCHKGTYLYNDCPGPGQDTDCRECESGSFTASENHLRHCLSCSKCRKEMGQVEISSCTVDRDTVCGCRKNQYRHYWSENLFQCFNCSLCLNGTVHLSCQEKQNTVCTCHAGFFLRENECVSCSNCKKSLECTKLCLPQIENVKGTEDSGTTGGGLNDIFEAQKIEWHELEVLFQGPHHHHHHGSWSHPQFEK
Outline: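 Readout is the 665/615 nm TR-FRET ratio (Eu anti-His donor, streptavidin-Alexa647 acceptor), normalized to DMSO and saturating displacer, fit by Morrison-based five-parameter logistic for Kd^app. His-tagged sTNFR1 (1-211) prebound to 100 nM biotinylated peptide SEQ ID NO.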

[2] = target: T2, TNFα-induced NF-κB signal transduction pathway (TNFR1 signaling) in THP-1 cells (Homo sapiens, UniProt P19438); experiment: THP-1 Lucia NF-κB reporter cell assay, inhibition of TNFα-induced NF-κB signaling; type: cell-based; conditions: THP-1 NF-κB Lucia reporter cells, 10 ng/mL TNFα, 16-18 h, secreted luciferase; read-out: THP-1 IC50
T2 sequence (P19438 30-455): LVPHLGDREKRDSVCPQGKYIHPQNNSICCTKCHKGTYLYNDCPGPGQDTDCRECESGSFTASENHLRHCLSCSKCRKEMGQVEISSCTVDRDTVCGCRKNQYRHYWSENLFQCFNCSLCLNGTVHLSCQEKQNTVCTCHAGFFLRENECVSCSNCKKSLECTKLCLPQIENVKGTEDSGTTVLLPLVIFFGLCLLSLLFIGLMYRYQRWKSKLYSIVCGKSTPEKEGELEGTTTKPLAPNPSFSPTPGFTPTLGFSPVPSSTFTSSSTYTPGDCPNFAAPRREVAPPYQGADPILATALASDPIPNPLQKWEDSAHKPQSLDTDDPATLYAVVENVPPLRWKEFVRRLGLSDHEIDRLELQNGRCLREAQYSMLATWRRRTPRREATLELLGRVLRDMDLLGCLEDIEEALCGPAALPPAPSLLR
Outline: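 Macrocyclic peptides were preincubated 1 h at 37 °C with THP-1 NF-κB-Lucia reporter cells (20,000 cells/well) in antibiotic-free RPMI 1640/10% FBS, then stimulated with 10 ng/mL human TNFα overnight (16-18 h). Secreted luciferase in supernatant was read by luminescence; IC50 from 4-parameter logistic fits.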

SMILES	Kd [1] [nM]	IC50 [2] [nM]	IC50 [1] [nM]
CCCC[C@@H]1NC(=O)[C@@H]2CC[C@@H](C2)NC(=O)[C@H]([C@@H](C)c2c[nH]c3c(OC)cccc23)NC(=O)CN(C)C(=O)[C@H](Cc2ccc(C(=O)O)cc2F)NC(=O)[C@H](Cc2ccc(C(=O)O)cc2)NC(=O)[C@](C)(CO)NC(=O)[C@H](Cc2c[nH]c3c(Cl)cccc23)NC(=O)[C@H](Cc2ccncc2)NC(=O)[C@H](CC(N)=O)NC(=O)[C@H](CCC(=O)O)N(C)C(=O)[C@H](Cc2c[nH]c3ccccc23)NC(=O)[C@@H]2CNCCN2C(=O)[C@H](Cc2ccncc2)NC1=O [SEQ ID NO. 107] (cyclo([4Pal][Trp(7-Cl)][αMeS][Phe(4-COOH)][Phe(2-F,4-COOH)][Sar][Trp(βS-Me,7-OMe)][X1][Nle][4Pal][Pip(4-aza)]W[NMeE]N))	0.3	1	
CCCC[C@@H]1NC(=O)[C@@H]2CC[C@@H](C2)NC(=O)[C@H]([C@@H](C)c2c[nH]c3c(OC)cccc23)NC(=O)CN(C)C(=O)[C@H](Cc2ccc(O)cc2)NC(=O)[C@H](Cc2ccc(C(N)=O)cc2)NC(=O)[C@](C)(CO)NC(=O)[C@H](Cc2c[nH]c3c(Cl)cccc23)NC(=O)[C@H](Cc2ccc(OCCN)cc2)NC(=O)[C@H](CC(N)=O)NC(=O)[C@H](CCC(=O)O)N(C)C(=O)[C@H](Cc2c[nH]c3ccccc23)NC(=O)[C@@H]2CC[C@@H](O)CN2C(=O)[C@H](Cc2ccncc2)NC1=O [SEQ ID NO. 145] (cyclo([4Pal][Pip(5R-OH)]W[NMeE]N[AEF][Trp(7-Cl)][αMeS][Phe(4-CONH2)]Y[Sar][Trp(βS-Me,7-OMe)][X1][Nle]))	0.18	0.8	
CCCC[C@@H]1NC(=O)[C@@H]2CC[C@@H](C2)NC(=O)[C@H]([C@@H](C)c2c[nH]c3c(OC)cccc23)NC(=O)CN(C)C(=O)[C@H](Cc2ccc(OCC(=O)O)cc2)NC(=O)[C@H](Cc2ccc(S(N)(=O)=O)cc2)NC(=O)[C@](C)(CO)NC(=O)[C@H](Cc2c[nH]c3c(C#N)cccc23)NC(=O)[C@H](Cc2ccc(OCC(=O)O)cc2)NC(=O)[C@H](CC(N)=O)NC(=O)[C@H]2C[C@H](O)CN2C(=O)[C@H](Cc2c[nH]c3ccccc23)NC(=O)[C@@H]2CC[C@@H](O)CN2C(=O)[C@H](Cc2ccncc2)NC1=O [SEQ ID NO. 135] (cyclo([4Pal][Pip(5R-OH)]W[dHyp]NY(Carboxymethyl)[Trp(7-CN)][αMeS][Phe(4-SO2NH2)]Y(Carboxymethyl)[Sar][Trp(βS-Me,7-OMe)][X1][Nle]))	0.07	0.4	
CCCC[C@@H]1NC(=O)[C@@H]2CC[C@@H](C2)NC(=O)[C@H]([C@@H](C)c2c[nH]c3c(OC)cccc23)NC(=O)CN(C)C(=O)[C@H](Cc2ccc(C(=O)O)cc2)NC(=O)[C@H](Cc2ccc(C(N)=O)cc2)NC(=O)[C@](C)(CO)NC(=O)[C@H](Cc2c[nH]c3c(Cl)cccc23)NC(=O)[C@H](Cc2ccc(C(=O)O)cc2)NC(=O)[C@H](CC(N)=O)NC(=O)[C@H]2C[C@H](CN)CN2C(=O)[C@H](Cc2c[nH]c3ccccc23)NC(=O)[C@@H]2CC[C@@H](O)CN2C(=O)[C@H](Cc2ccncc2)NC1=O [SEQ ID NO. 15] (cyclo([4Pal][Pip(5R-OH)]W[X47]N[Phe(4-COOH)][Trp(7-Cl)][αMeS][Phe(4-CONH2)][Phe(4-COOH)][Sar][Trp(βS-Me,7-OMe)][X1][Nle]))	0.1	0.5	
CCCC[C@@H]1NC(=O)CSC[C@@H](C(N)=O)NC(=O)[C@H]([C@@H](C)c2c[nH]c3c(OC)cccc23)NC(=O)CN(C)C(=O)[C@H](Cc2ccc(O)cc2)NC(=O)[C@H](Cc2ccc(C(=O)O)cc2)NC(=O)[C@](C)(CO)NC(=O)[C@H](Cc2c[nH]c3c(Cl)cccc23)NC(=O)[C@H](Cc2ccncc2)NC(=O)[C@H](CC(N)=O)NC(=O)CN(CCC#N)C(=O)[C@H](Cc2c[nH]c3ncccc23)NC(=O)[C@@H]2CCCCN2C(=O)[C@H](Cc2ccncc2)NC1=O [SEQ ID NO. 228] ({CH2CO}-[Nle][4Pal][Pip][Trp(7-aza)][X33]N[4Pal][Trp(7-Cl)][αMeS][Phe(4-COOH)]Y[Sar][Trp(βS-Me,7-OMe)]C-NH2; thioether N-14)	0.64	4	0.7
CCCC[C@@H]1NC(=O)CSC[C@@H](C(N)=O)NC(=O)[C@](C)(Cc2c[nH]c3ccccc23)NC(=O)CN(C)C(=O)[C@H](Cc2ccc(O)cc2)NC(=O)[C@H](Cc2ccc(C(=O)O)cc2)NC(=O)[C@](C)(CO)NC(=O)[C@H](Cc2c[nH]c3c(Cl)cccc23)NC(=O)[C@H](Cc2ccncc2)NC(=O)[C@H](CC(N)=O)NC(=O)[C@H](CCC(=O)O)N(C)C(=O)[C@H](Cc2c[nH]c3ncccc23)NC(=O)[C@H](CCN)NC(=O)[C@H](Cc2ccncc2)NC1=O [SEQ ID NO. 277] ({CH2CO}-[Nle][4Pal][Dab][Trp(7-aza)][NMeE]N[4Pal][Trp(7-Cl)][αMeS][Phe(4-COOH)]Y[Sar][αMeW]C-NH2; thioether N-14)		3	1.12
CCCC[C@@H]1NC(=O)[C@@H]2CC[C@@H](C2)NC(=O)[C@H]([C@@H](CCC)c2c[nH]c3ccccc23)NC(=O)CN(C)C(=O)[C@H](Cc2ccc(C(=O)O)cc2)NC(=O)[C@H](Cc2ccc(C(N)=O)cc2)NC(=O)[C@](C)(CO)NC(=O)[C@H](Cc2c[nH]c3c(Cl)cccc23)NC(=O)[C@H](Cc2ccc(C(=O)O)cc2)NC(=O)[C@H](CC(N)=O)NC(=O)[C@H]2C[C@H](O)CN2C(=O)[C@H](Cc2c[nH]c3ccccc23)NC(=O)[C@@H]2CC[C@@H](O)CN2C(=O)[C@H](Cc2ccncc2)NC1=O [SEQ ID NO. 27] (cyclo([4Pal][Pip(5R-OH)]W[dHyp]N[Phe(4-COOH)][Trp(7-Cl)][αMeS][Phe(4-CONH2)][Phe(4-COOH)][Sar][X51][X1][Nle]))	0.1	0.5	
CCCC[C@@H]1NC(=O)[C@@H]2CC[C@@H](C2)NC(=O)[C@H]([C@@H](C)c2c[nH]c3c(OC)cccc23)NC(=O)CN(C)C(=O)[C@H](Cc2ccc(C(=O)O)cc2)NC(=O)[C@H](Cc2ccc(C(N)=O)cc2)NC(=O)[C@](C)(CO)NC(=O)[C@H](Cc2c[nH]c3c(C#N)cccc23)NC(=O)[C@H](Cc2ccncc2)NC(=O)[C@H]([C@H](O)C(N)=O)NC(=O)[C@H]2C[C@H](O)CN2C(=O)[C@H](Cc2c[nH]c3ccccc23)NC(=O)[C@@H]2CC[C@@H](O)CN2C(=O)[C@H](Cc2ccncc2)NC1=O [SEQ ID NO. 25] (cyclo([4Pal][Trp(7-CN)][αMeS][Phe(4-CONH2)][Phe(4-COOH)][Sar][Trp(βS-Me,7-OMe)][X1][Nle][4Pal][Pip(5R-OH)]W[dHyp][Asn(3S-OH)]))	0.04	0.8	
CCCC[C@@H]1NC(=O)[C@@H]2CC[C@@H](C2)NC(=O)[C@H]([C@@H](C)c2c[nH]c3c(OC)cccc23)NC(=O)CN(C)C(=O)[C@H](Cc2cccc(C(N)=O)c2)NC(=O)[C@H](Cc2ccc(C(N)=O)cc2)NC(=O)[C@](C)(CO)NC(=O)[C@H](Cc2c[nH]c3c(Cl)cccc23)NC(=O)[C@H](Cc2ccncc2)NC(=O)[C@H](CC(N)=O)NC(=O)[C@H]2C[C@H](O)CN2C(=O)[C@H](Cc2c[nH]c3ccccc23)NC(=O)[C@@H]2CC[C@H](O)CN2C(=O)[C@H](Cc2ccncc2)NC1=O [SEQ ID NO. 67] (cyclo([4Pal][Trp(7-Cl)][αMeS][Phe(4-CONH2)][Phe(3-CONH2)][Sar][Trp(βS-Me,7-OMe)][X1][Nle][4Pal][X63]W[dHyp]N))	0.2	0.4	
